Test results published in the NIST ThermoML archive (doi:10.1016/j.jct.2013.01.019).
± gives the expanded uncertainty stated by the source.

How the values were obtained:
[1] = Crystal; DTA
[2] = Molar enthalpy of transition or fusion; conditions: Crystal; DSC

With CCCCCCCCCCCCO [dodecan-1-ol] the Normal melting temperature [1] was 24.00 ± 0.53 °C and the “Molar enthalpy of transition or fusion” value [2] was 9.33 ± 0.263 kcal/mol.
For CCCCCCCCCCCCCCCCCC [octadecane], the Normal melting temperature [1] was 27.80 ± 0.53 °C and the “Molar enthalpy of transition or fusion” value [2] was 14.7 ± 0.406 kcal/mol.
